Measured values from article PMC10840383, “Clinical features, functional consequences, and rescue pharmacology of missense GRID1 and GRID2 human variants” (Human Molecular Genetics, 2023).
“Also recorded” adds a separate entry of the source.

Target: T1, GluD2-A654T-D535E (Rattus norvegicus, UniProt Q63226, A654T/D535E)
T1 construct: expressed in transfected cells; host or cells: Xenopus laevis oocytes injected with cRNA
T1 sequence (Q63226 24-1007 D535E/A654T): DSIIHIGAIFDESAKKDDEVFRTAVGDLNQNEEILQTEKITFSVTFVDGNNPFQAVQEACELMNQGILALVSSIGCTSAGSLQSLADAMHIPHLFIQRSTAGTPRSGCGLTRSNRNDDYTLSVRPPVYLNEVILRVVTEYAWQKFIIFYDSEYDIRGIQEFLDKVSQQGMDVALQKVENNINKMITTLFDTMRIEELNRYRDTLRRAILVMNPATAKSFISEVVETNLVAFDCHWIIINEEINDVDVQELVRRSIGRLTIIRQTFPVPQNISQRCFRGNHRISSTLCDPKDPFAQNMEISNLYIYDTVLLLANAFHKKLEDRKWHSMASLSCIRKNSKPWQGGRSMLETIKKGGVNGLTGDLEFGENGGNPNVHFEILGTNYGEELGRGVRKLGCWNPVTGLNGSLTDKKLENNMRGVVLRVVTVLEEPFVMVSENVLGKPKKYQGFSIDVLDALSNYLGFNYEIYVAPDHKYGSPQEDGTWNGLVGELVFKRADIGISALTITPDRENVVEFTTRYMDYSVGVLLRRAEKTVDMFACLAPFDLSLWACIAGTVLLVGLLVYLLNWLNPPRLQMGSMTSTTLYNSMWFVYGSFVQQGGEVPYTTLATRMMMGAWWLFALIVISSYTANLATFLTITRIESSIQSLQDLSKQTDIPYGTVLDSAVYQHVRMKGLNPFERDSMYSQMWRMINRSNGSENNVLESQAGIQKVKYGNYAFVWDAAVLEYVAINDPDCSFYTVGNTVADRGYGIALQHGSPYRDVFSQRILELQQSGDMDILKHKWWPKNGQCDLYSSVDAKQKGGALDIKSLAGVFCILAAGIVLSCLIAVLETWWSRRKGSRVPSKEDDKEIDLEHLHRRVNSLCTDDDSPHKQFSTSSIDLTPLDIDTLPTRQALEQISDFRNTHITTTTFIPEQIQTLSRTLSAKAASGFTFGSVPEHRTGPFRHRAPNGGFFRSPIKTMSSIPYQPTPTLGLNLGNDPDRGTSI
Test: TEVC of constitutive current, Xenopus oocytes expressing GluD2-A654T-D535E
Format: cell-based
Conditions: for Effect on constitutive current, in words: compared to GluD2-A654T
From the text: Human GluD1 (GRID1) and rat GluD2 (Grid2) cDNAs were introduced into the pGEM-HE and pCI-neo vectors. GRID1 (NM_017551.3) gene fragments were synthesized by Integrated DNA Technologies and cloned into empty vectors using InFusion cloning (Clontech). […] However, rat and human GluD2-encoding cDNA are identical in the M3 domain in which many of the variants we studied reside (see Supplementary Fig. S1). The full open reading frame for both constructs were verified by Sanger sequencing (Eurofins) and the full plasmid sequence was verified by whole plasmid sequencing (plasmidsaurus). Variant cDNA changes identified in patients were introduced into the cloned human GRID1 (NM_017551.3) in pGEM-HE and cloned rat Grid2 cDNA sequence (NM_024379.1) in pGEM-HE vector using Quikchange Lightning (Agilent) protocol according to the manufacturer’s instructions. Vectors were linearized and cRNA was synthesized using T7 RNA mMESSAGE kit (Invitrogen).
Xenopus laevis oocytes were prepared from ovaries purchased from Xenopus 1 (Dexter, MI) as previously described, [68] and incubated at 16°C in culture Barth’s solution (in mM) 88 NaCl, 2.4 NaHCO3, 1 KCl, 0.33 Ca(NO3)2, 0.41 CaCl2, 0.82 MgSO4, 10 HEPES, pH 7.4 with NaOH, supplemented with 1 U/ml penicillin and 1 μg/ml streptomycin. Oocytes were injected with approximately 5–40 ng RNA per oocyte and then incubated at 16–19°C for 1–3 days in culture Barth’s solution. […] Two-electrode voltage clamp (TEVC) recordings were performed as previously described. Unless otherwise specified, extracellular solution contained (in mM) 90 NaCl, 3 KCl, 0.5 BaCl2, 0.01 EDTA, 10 HEPES, and was brought to pH 7.4 with NaOH. The oocytes were placed in a dual track recording chamber and gravity perfused with solution exchange controlled via a computer-driven 8-valve positioner (Digital MVP Valve). […] Recording electrodes were filled with 0.3 M KCl, and currents were recorded with membrane voltage held at −40 mV. To establish constitutive activity of recombinant receptors when compared to wild type receptors, we used the oocyte recording solution described above, but with 90 mM N-methyl-D-glucamine (NMDG) chloride replacing 90 mM NaCl. […] For Ca^2+ concentration-response curves, choline chloride was used to maintain equimolar concentrations of Cl^− ions in the extracellular solution across the changing concentrations of calcium chloride. All compounds used in this study for concentration-response oocyte recordings were dissolved in deionized water as 50–100 mM stock solutions. In some rescue pharmacology experiments, we substituted 1 mM CaCl2 for 0.5 mM BaCl2 to evaluate Ca^2+-dependent control of receptor responses.
Data are represented as mean ± SEM. Statistical significance of logEC50 or logIC50 was determined by one-way analysis of variance (ANOVA) with a Dunnett’s multiple comparisons post-hoc test with a significance threshold of P < 0.05. Sample sizes were adjusted so that the power to detect an effect size of 1 was > 0.9 (GPower 3.1). All error bars on figures represent the SEM.

SMILES: [Ca+2] [Ca^2+]
- Effect on constitutive current, in words: weakly inhibited; also recorded: complete loss of Ca^2+ potentiation
- EC50 (modulation of constitutive current, inhibited by Ca2+ (not potentiated), read-out: Ca2+ EC50 [95% CI]): 5.6 mM
- Ca2+ % Max (NMDG+ − Na+) Mean ± SEM (normalized to NMDG+ − Na+ difference current): 70 ± 2.0 (15) %

SMILES: N[C@H](CO)C(=O)O [D-serine]
- Effect on constitutive current, in words: modestly reduced D-serine potency
- D-serine % Max (NMDG+ − Na+) Mean ± SEM (percent of constitutive leak current (NMDG+/Na+ difference current)): 60 ± 2.2 (15) %
